Target: T1, mouse Nurr1 receptor (Mus musculus, UniProt Q06219)
T1 construct: a cell line (N2A) endogenously expressing the mouse Nurr1 receptor; host or cells: Neuro-2A (N2A) mouse neuroblastoma cells stably transfected with 8NBRE-luciferase
Experiment: In vitro activity on N2A cells (NBRE-luciferase reporter)
Type: cell-based
Conditions: N2A-8NBRE cells, products incubated 24 hours
Procedure: Evaluation of the In Vitro Activity on N2A Cells
• The activity of the compounds according to the invention was evaluated on a cell line (N2A) endogenously expressing the mouse Nurr1 receptor and stabily transfected with the NOT binding response element (NBRE) coupled to the luciferase reporter gene. The EC50 values are between 0.01 and 10 μM. The tests were carried out according to the procedure described below. • The Neuro-2A cell line comes from a standard commercial source (ATCC). The Neuro-2A clone was obtained from a spontaneous tumour originating from a mouse A albino strain by R. J. Klebe et al. This Neuro-2A line is subsequently stabily transfected with 8NBRE-luciferase. The N2A-8NBRE cells are cultured to confluence in 75 cm^2 culture flasks containing DMEM supplemented with 10% of foetal calf serum, 4.5 g/l of glucose and 0.4 mg/ml of geneticin. After one week of culture, the cells are recovered with 0.25% trypsin for 30 seconds and then resuspended in DMEM without phenol red, containing 4.5 g/l of glucose, 10% of Hyclone defatted serum, and deposited in white, transparent-bottom, 96-well plates. The cells are deposited at a rate of 60 000 per well in 75 μl for 24 hours before the addition of the products. The products were applied in 25 μl and incubated for a further 24 hours. On the day of measurement, an equivalent volume (100 μl) of Steadylite is added to each well, followed by a waiting period of 30 minutes in order to obtain complete lysis of the cells and maximum production of the signal. The plates are then measured in a microplate luminescence counter after having been sealed with an adhesive film. The products are prepared in the form of a stock solution at 10^−2 M, and then diluted in 100% of DMSO. Each product concentration is diluted beforehand in culture medium before incubation with the cells thus containing a final concentration of 0.625% of DMSO. […] It therefore appears that the compounds according to the invention have a NOT-modulating effect.

T1 sequence (Q06219 whole entry): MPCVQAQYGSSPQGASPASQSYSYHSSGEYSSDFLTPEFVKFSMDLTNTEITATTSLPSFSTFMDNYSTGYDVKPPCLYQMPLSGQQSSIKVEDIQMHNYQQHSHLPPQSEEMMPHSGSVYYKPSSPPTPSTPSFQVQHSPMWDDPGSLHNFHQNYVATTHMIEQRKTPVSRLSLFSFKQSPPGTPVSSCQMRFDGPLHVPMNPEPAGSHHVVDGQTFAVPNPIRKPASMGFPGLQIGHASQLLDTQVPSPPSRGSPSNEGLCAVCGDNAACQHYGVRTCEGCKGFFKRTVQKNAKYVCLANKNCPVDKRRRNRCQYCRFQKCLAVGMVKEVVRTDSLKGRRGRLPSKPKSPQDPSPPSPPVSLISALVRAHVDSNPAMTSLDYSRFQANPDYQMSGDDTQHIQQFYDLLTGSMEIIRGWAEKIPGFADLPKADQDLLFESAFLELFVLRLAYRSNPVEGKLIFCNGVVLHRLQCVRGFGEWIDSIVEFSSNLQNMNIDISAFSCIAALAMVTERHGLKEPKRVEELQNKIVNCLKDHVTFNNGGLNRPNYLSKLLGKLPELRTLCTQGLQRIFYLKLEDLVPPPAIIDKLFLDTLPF

| EC50 [nM] | Structure (SMILES) |
| --- | --- |
| 161 | COc1ccc(-c2nc3ccc(-c4cccc(C(C)(C)O)c4)cn3c2C)cc1 [Compound 15, 2-{3-[2-(4-methoxyphenyl)-3-methylimidazo[1,2-α]pyridin-6-yl]phenyl}propan-2-ol] |
| 1.7 | Cc1c(-c2cccc(Cl)c2)nc2ccc(-c3ccc(F)c(CO)c3F)cn12 [Compound 19, {3-[2-(3-chlorophenyl)-3-methylimidazo[1,2-α]pyridin-6-yl]-2,6-difluorophenyl}methanol] |
| 0.5 | Cc1c(-c2ccccc2)nc2ccc(-c3cccc(CO)c3)cn12 [Compound 3, [3-(3-Methyl-2-phenylimidazo[1,2-α]pyridin-6-yl)phenyl]methanol] |
| 5 | Cc1cc(-c2cccc(CO)c2)cn2cc(-c3ccc(Cl)cc3)nc12 [Compound 1, {3-[2-(4-Chlorophenyl)-8-methylimidazo[1,2-α]pyridin-6-yl]phenyl}methanol] |
| 68 | Cc1cc(-c2ccc(CO)cc2)cn2cc(-c3ccc4ccccc4c3)nc12 [Compound 10, [4-(8-methyl-2-naphthyl-2-ylimidazo[1,2-α]pyridin-6-yl)phenyl]methanol] |

Tested on: not given
Experiment: not given
Conditions: not given

| melting point [°C] | Structure (SMILES) |
| --- | --- |
| 174 to 177 | Cc1cc(-c2cccc(CO)c2)cn2cc(-c3ccc(Cl)cc3)nc12 [Compound 1, {3-[2-(4-Chlorophenyl)-8-methylimidazo[1,2-α]pyridin-6-yl]phenyl}methanol] |

From US8507520B2, “Polysubstituted 2-aryl-6-phenylimidazo[1,2-A]pyridine derivatives, and preparation and therapeutic use thereof” (Sanofi, priority 2008, dated 2013)
